In brackets after ≈: the same amount, converted by molar mass. Like-named read-outs stand apart in the source and are kept apart here. *1 amine or outer side, *2 acyl side, *3 side chain or, on linkers, in order; H or OH if unused. Where a SMILES comes first, the peptide text is derived from it. Bridges are numbered along the chain shown (N, C = ends). Roman numbers before positions name the chains, in order. [ ]: non-standard residue; d: D form. Actinocin(9to1) = Cc1c2oc3c(C)ccc(C(=O)[*:1])c3nc-2c(C(=O)[*:2])c(N)c1=O; NMeV = CN[C@H](C(=O)O)C(C)C; Sar = CNCC(=O)O
Experiments:
[1] = XTT cell proliferation (cytotoxicity) assay on McCoy cells; type: cell-based; details: mouse
Procedure: (§1) Extract and compounds were dissolved in dimethyl sulfoxide (DMSO) and stored at −20°C. All tested compounds were diluted to the final concentration with RPMI 1640 and control cultures were diluted with 0.1% DMSO.
(§2) McCoy cells were maintained in monolayer culture at 37°C and 5% CO2 with 10% […] Medium, 10 μg/mL of penicillin, 10 μg/mL, streptomycin, 40 μg/mL gentamycin, and 0.25 μg/mL fungizone.
(§3) A microtiter plate with McCoy cells was used for testing all the ethanol extracts for cytotoxicity following the method of [26]. Cytotoxicity was measured by the XTT (sodium 3′-[1-(phenyl amino-carbonyl)-3,4-tetrazolium]-bis-[4-methoxy-6-nitro] benzene sulfonic acid hydrate) method using a cell proliferation kit II (Roche Diagnostics GmbH). Hundred microlitres of McCoy cells (1 × 10^5 mL) was seeded onto a microtiter plate and incubated for 24 h to allow the cells to attach to the bottom of the plate. Dilution series were made of the extract and compound and the various concentrations (400 to 3.1 μg/mL) were added to the microtitre plate and incubated for 48 h. The XTT reagents were added to a final concentration of 0.3 mg/mL and the cells were incubated for 1-2 hours. The positive drug control (Zearalenone) at concentrations range of (10 μg/mL to 0.6 μg/mL) was included in the assay. After incubation the absorbance of the colour was spectrophotometrically quantified using an ELISA plate reader, which measured the optical density at 490 nm with a reference wavelength of 690 nm. The assay was carried out in triplicate.

[2] = test system: Actinomyces naeslundii (ATCC 19039); experiment: Microdilution MIC/MMC (INT) against Actinomyces naeslundii; type: cell-based; details: A.n, Gram +ve, table title says mg/mL; for MBC: MMC in title
Procedure: (§4) The microorganisms used in this study include Actinomyces naeslundii (ATCC 19039), Actinomyces israelii (ATCC 10049), Aggregatibacter actinomycetemcomitans (ATCC 33384), Candida albicans (Med I), Porphyromonas gingivalis (ATCC 33277), Prevotella intermedia (ATCC 25611), and Streptococcus mutans (ATCC 25175). Bacteria were grown in the Casein-peptone Soy Agar medium (CASO) (Merck SA (Pty) Ltd.) under anaerobic conditions in a jar with anaerocult A (Merck SA (Pty) Ltd.), at 37°C for 48 hours. Sabouraud Dextrose Agar medium (SDA) (Merck SA (Pty) Ltd.) was used for the culturing of Candida albicans and incubated at 37°C for 24 hours under aerobic conditions. Subculturing was done once weekly.
(§5) The microdilution technique using 96-well microplates was used to obtain the MIC and MMC values of the crude extract against microorganisms under study. The extract was serially diluted in the 96-well plate with 48 hours old microorganisms (5 × 10^6 CFU/mL) grown at 37°C and the final concentration of extract and positive control (CHX) ranged from 25.0 mg/mL to 0.8 mg/mL. Microbial growth was indicated by adding 40 μL of (0.2 mg/mL) p-iodonitrotetrazolium violet (INT) (Sigma-Aldrich, South Africa) to microplate wells and incubated at 37°C for 48 hours. MIC was defined as the lowest concentration that inhibited the colour change of INT. […] These suspensions were reincubated at 37°C for 48 hours. The MMC was determined as the lowest concentration of extract which inhibited 100% growth of microorganisms.

[3] = test system: Actinomyces israelii (ATCC 10049); experiment: Microdilution MIC/MMC (INT) against Actinomyces israelii; type: cell-based; details: A.i, Gram +ve, table title says mg/mL; for MBC: MMC in title
Procedure: as §4, §5

[4] = test system: Aggregatibacter actinomycetemcomitans (ATCC 33384); experiment: Microdilution MIC/MMC (INT) against Aggregatibacter actinomycetemcomitans; type: cell-based; details: A.a, Gram –ve, table title says mg/mL; for MBC: MMC in title
Procedure: as §4, §5

[5] = test system: Prevotella intermedia (ATCC 25611); experiment: Microdilution MIC/MMC (INT) against Prevotella intermedia; type: cell-based; details: P.i, Gram –ve, table title says mg/mL; for MBC: MMC in title
Procedure: as §4, §5

[6] = test system: Porphyromonas gingivalis (ATCC 33277); experiment: Microdilution MIC/MMC (INT) against Porphyromonas gingivalis; type: cell-based; details: P.g, Gram –ve, table title says mg/mL; for MBC: MMC in title
Procedure: as §4, §5

Candida albicans (Med I) = experiment: Microdilution MIC/MMC (INT) against Candida albicans; type: cell-based; details: C.a, Yeast, table title says mg/mL; for MBC: MMC in title
Procedure: as §4, §5

oral microorganisms = experiment: Microdilution MIC/MMC, summary over tested microbial species; type: cell-based; details: against A. israelii and A. naeslundii; for MIC: read-out: lowest MIC and MMC value
Procedure: as §4, §5

[7] = DPPH free radical scavenging assay; type: biochemical; details: 37°C, 30 min, 517 nm
Procedure: The free radical scavenging activity was measured using 1, 1 diphenyl-2-picryl-hydraxyl (DPPH) assay with slight modifications. The ethanol extract of A. afra and Vitamin C (positive control) 1000 μg/mL (20 μL) was added in the first three wells of a 96-well plate containing 200 μL of distilled water to make up final concentration of 100 μg/mL and the remaining wells were filled with 110 μL of distilled water. The first raws containing the extract/compounds were serially diluted to wells which contain 110 μL of distilled water, and later, 90 μL of methanolic solution of DPPH ([…]) was added to all the wells. The final concentrations of the extract/compounds ranged from 100 to 0.8 μg/mL. The plates were incubated at 37°C for 30 min and the absorbance was measured at 517 nm using the ELISA plate reader. The percent radical scavenging activity by A. afra was determined by comparison with ethanol (blank). The inhibition ratio was calculated as follows: % DPPH radical-scavenging = (AC-AS)/AC × 100, where AC is absorbance of the control solution (containing only DPPH solution), and AS is the absorbance of the sample in DPPH solution. The percentage of DPPH radical-scavenging was plotted against the plant extract/compounds concentrations (μg/mL) to determine the concentration of extract/compound required to scavenge DPPH by 50% (EC50).

lung cancer (A549) cell = test system: lung cancer (A549) cell; parameters: method as in PMID 15246561; details: A549 cells; read-out: IC50 cell proliferation; cited from earlier work
[8] = test system: murine melanoma B16 cell line; parameters: method as in PMID 15363977; details: B16 cells; cited from earlier work
McCoy fibroblast cells = experiment: XTT cell proliferation (cytotoxicity) assay on McCoy cells; type: cell-based; details: McCoy cells, XTT, 48 h
Procedure: as §1, §2, §3

[9] = McCoy cells, XTT, 48 h, read-out: IC50 (cytotoxicity)
[10] = Actinomyces naeslundii, ATCC19039
[11] = Actinomyces israelii, ATCC10049, read-out: MBC
[12] = Actinomyces israelii, ATCC10049, read-out: MIC
[13] = Prevotella intermedia, ATCC25611, read-out: MBC
[14] = Prevotella intermedia, ATCC25611, read-out: MIC
[15] = Porphyromonas gingivalis, ATCC33277
[16] = Actinomyces israelii, ATCC10049
[17] = Aggregatibacter actinomycetemcomitans, ATCC33384
[18] = Prevotella intermedia, ATCC25611
[19] = Porphyromonas gingivalis, ATCC33277, read-out: MIC

Molecule | MBC [2, 10] [µg/mL] | MIC [2, 10] [µg/mL] | MIC [3, 12] [µg/mL] | MIC [6, 15] [µg/mL] | MBC [3, 16] [µg/mL] | MBC [4, 17] [µg/mL] | MIC [4, 17] [µg/mL] | MBC [5, 18] [µg/mL] | MIC [5, 18] [µg/mL] | MBC [6, 15] [µg/mL] | MBC (Candida albicans (Med I)) [µg/mL] | MIC (Candida albicans (Med I)) [µg/mL] | DPPH scavenging IC50 [7] [µg/mL] | further results
Cc1c2oc3c(C)ccc(C(=O)N[C@@H]4C(=O)N[C@H](C(C)C)C(=O)N5CCC[C@H]5C(=O)N(C)CC(=O)N(C)[C@@H](C(C)C)C(=O)O[C@@H]4C)c3nc-2c(C(=O)N[C@@H]2C(=O)N[C@H](C(C)C)C(=O)N3CCC[C@H]3C(=O)N(C)CC(=O)N(C)[C@@H](C(C)C)C(=O)O[C@@H]2C)c(N)c1=O [Actinomycin-D, reference compound] (I: T[dV]P[Sar][NMeV] / II: T[dV]P[Sar][NMeV]; ester I:1-I:C, II:1-II:C; linker I:N-II:N via Actinocin(9to1)) |  |  |  |  |  |  |  |  |  |  |  |  |  | IC50 at 48 h [1, 9]: 0.00336 µg/mL (≈ 0.00268 µM)
[H]/N=C(\N/C(=N/[H])NCCCCCCNC(=N)NC(=N)Nc1ccc(Cl)cc1)Nc1ccc(Cl)cc1 [Chlorhexidine, chlorhexidine, reference compound] | 1600 (≈ 3170 µM) | 1600 (≈ 3170 µM) | 6.3 (≈ 12.5 µM) | 1600 (≈ 3170 µM) |  |  |  |  |  |  |  |  |  | MBC [3, 11]: 6.3 µg/mL (≈ 12.5 µM); MBC ([4]; Aggregatibacter actinomycetemcomitans, ATCC33384, read-out: MBC): 1.6 µg/mL (≈ 3.17 µM); MIC ([4]; Aggregatibacter actinomycetemcomitans, ATCC33384, read-out: MIC): 1.6 µg/mL (≈ 3.17 µM); MBC [5, 13]: 6.3 µg/mL (≈ 12.5 µM); MIC [5, 14]: 6.3 µg/mL (≈ 12.5 µM); MBC ([6]; Porphyromonas gingivalis, ATCC33277, read-out: MBC): 1.6 µg/mL (≈ 3.17 µM); MBC (Candida albicans (Med I); read-out: MBC): 1.25 µg/mL (≈ 2.47 µM); MIC (Candida albicans (Med I); read-out: MIC): 6.3 µg/mL (≈ 12.5 µM)
COc1ccc(-c2cc(=O)c3c(O)cc(O)cc3o2)cc1 [compound 1, acacetin] | 1000 (≈ 3520 µM) | 1000 (≈ 3520 µM) |  | 1000 (≈ 3520 µM) | 500 (≈ 1760 µM) | > 1000 | > 1000 | > 1000 | 1000 (≈ 3520 µM) | > 1000 | > 1000 | > 1000 | 2.39 | MIC [3, 16]: 250 µg/mL (≈ 879 µM); MIC (oral microorganisms): 250 µg/mL (≈ 879 µM); IC50 at 48 h [1]: 35.4 µg/mL (≈ 125 µM); IC50 (lung cancer (A549) cell): 9.46 µM
C=C1C(=O)OC2C1C(OC(C)=O)CC(=C)C1(O)C=CC(C)(O)C21 (stereo not drawn) [compound 2, 12α,4α-dihydroxybishopsolicepolide] | 1000 (≈ 3120 µM) | 500 (≈ 1560 µM) |  |  | 500 (≈ 1560 µM) | > 1000 | > 1000 |  | 1000 (≈ 3120 µM) | > 1000 | > 1000 | > 1000 |  | MIC [3, 16]: 500 µg/mL (≈ 1560 µM); MBC [5, 13]: 1 µg/mL (≈ 3.12 µM); MIC [6, 19]: > 1 µg/mL
C[C@H]1[C@H](C)CC[C@]2(C)CC[C@]3(C)C(=CC[C@@H]4[C@@]5(C)CC[C@H](O)C(C)(C)[C@@H]5CC[C@]43C)[C@H]12 [compound 4, α-amyrin] |  | 1000 (≈ 2340 µM) | > 1 |  |  | > 1000 | > 1000 | > 1000 |  | > 1000 | > 1000 | > 1000 |  | MBC ([2]; Actinomyces naeslundii, ATCC19039, read-out: MBC): > 1 µg/mL; MBC [3, 11]: > 1 µg/mL; MIC [5, 14]: > 1 µg/mL; MIC [6, 19]: > 1 µg/mL
C=C(C)[C@@H]1CC[C@]2(C(=O)O)CC[C@]3(C)[C@H](CC[C@@H]4[C@@]5(C)CC[C@H](O)C(C)(C)[C@@H]5CC[C@]43C)[C@@H]12 [compound 6, betulinic acid] | 500 (≈ 1090 µM) |  | 1 (≈ 2.19 µM) | 1000 (≈ 2190 µM) | 1000 (≈ 2190 µM) | > 1000 | > 1000 | > 1000 | 1000 (≈ 2190 µM) | > 1000 | > 1000 | > 1000 | 2.42 | MIC ([2]; Actinomyces naeslundii, ATCC19039, read-out: MIC): 0.25 µg/mL (≈ 0.547 µM); MIC (oral microorganisms): 250 µg/mL (≈ 547 µM); IC50 at 48 h [1, 9]: 31 µg/mL (≈ 67.8 µM); IC50 apoptotic effects [8]: 22.5 µg/mL (≈ 49.3 µM)
O=C1O[C@H]([C@@H](O)CO)C(O)=C1O [vitamin C, reference compound] |  |  |  |  |  |  |  |  |  |  |  |  | 1.22 | 
phytol [compound 5] |  |  |  |  |  |  |  |  |  |  | > 1000 | > 1000 |  | MBC [2]: >1.0 µg/mL; MIC [2]: >1.0 µg/mL; MBC [3]: >1.0 µg/mL; MIC [3]: >1.0 µg/mL; MBC [4]: > 1000 µg/mL; MIC [4]: > 1000 µg/mL; MBC [5]: > 1000 µg/mL; MIC [5]: >1.0 µg/mL; MBC [6]: > 1000 µg/mL; MIC [6]: >1.0 µg/mL
scopoletin [compound 3] |  |  |  |  |  |  |  |  |  |  | > 1000 | > 1000 | 1.24 | MBC [2]: >1.0 µg/mL; MIC [2]: 1000 µg/mL; MBC [3]: 500 µg/mL; MIC [3]: 250 µg/mL; MBC [4]: > 1000 µg/mL; MIC [4]: > 1000 µg/mL; MBC [5]: 1.0 µg/mL; MIC [5]: 500 µg/mL; MBC [6]: > 1000 µg/mL; MIC [6]: >1.0 µg/mL; lowest MIC and MMC value (oral microorganisms): 250 µg/mL; IC50 (cytotoxicity) (McCoy fibroblast cells): 132.5 µg/mL
